Source: patent publication US20260242438A1 (INSTITUTE OF MATERIA MEDICA, CHINESE ACADEMY OF MEDICAL …, priority 2022, published 2026)
Where a SMILES comes first, the peptide text is derived from it. Bridges are numbered along the chain shown (N, C = ends).

Target: chymotrypsin (Bos taurus, UniProt P00766)
Experiment: Determination of enzyme inhibitory activity against chymotrypsin (substrate AAPFpNA, OD 405 nm)
Type: biochemical
Conditions: for IC50: chymotrypsin 30 nM, AAPFpNA 0.5 mM, pH 7.8, 37° C.; for remaining activity at 0.001 µM: peptide 0.001 μM; for remaining activity at 0.01 µM: peptide 0.01 μM; for remaining activity at 0.1 µM: peptide 0.1 μM; for remaining activity at 0.2 µM: peptide 0.2 μM; for remaining activity at 0.4 µM: peptide 0.4 μM; for remaining activity at 0.8 µM: peptide 0.8 μM; for remaining activity at 1 µM: peptide 1 μM; for remaining activity at 10 µM: peptide 10 μM; for remaining activity at 100 µM: peptide 100 μM; for inhibitory activity reduced (fold): relative to CH10; for remaining activity at 0.0001 µM: peptide 0.0001 μM; for remaining activity at 0.5 µM: peptide 0.5 μM; for remaining activity at 0.15 µM: peptide 0.15 μM
Protocol: The substrates N-succinyl-Ala-Ala-Pro-Phe-p-nitroaniline (AAPFpNA) is used in competitive binding reaction to determine the inhibitory activities against α -chymotrypsin. Experiments for a-chymotrypsin was measured in 20 mM CaCl2, 50 mM Tris-HCl buffer (pH 7.8). The concentration of the peptide was measured using optical density (OD) at 280 nm. The Michaelis constant (Km) of the enzyme hydrolysis substrate is calculated from the initial rate of substrate hydrolysis at 405 nm. The absorbance value of the substrate was measured at 405 nm after complete hydrolysis. All data were processed using nonlinear regression.
(1) Added a total 190 μL of reaction buffer (20 mM CaCl2, 50 mM Tris-HCl (pH 7.8)), different concentrations of anti-chymorypsin peptides (CHs) into the pre-cold 96 well plate, followed by preheating at 37° C. for 5 min and centrifugated at 500 rpm for 1 min and allowed to stand for 4 minutes. Then added 8 μL of 750 nM chymotrypsin and incubated at 37° C. for 10 min, and centrifugated at 500 rpm for 1 min and allowed to stand for 9 minutes. Finally, added 2 μL of 50 mM AAPFpNA, and mixed by centrifugation at 500 rpm for 1 min. The plate was incubated at 37° C. for 90 min, and the absorbance value at 405 nm was measured. Three repetitions were made, and only reaction buffer and substrate were added in the blank control as the minimum absorption value (Min OD 405 nm); Only reaction buffer, enzyme and substrate were added in the negative control as the maximum absorption value (Max OD 405 nm).
(2) In the 200 μL of reaction system, the final concentrations of chymotrypsin and AAPFpNA were 30 nM and 0.5 mM, respectively.
Plotted the residual activity of enzyme with […] to obtain the half inhibitory concentration (IC50) of anti-chymorypsin peptides (CHs). Then, substituted it into the formula […]/(1+S/Km) (S, IC50, and Km were substrate concentration, half inhibitory concentration, and Michaelis constant, respectively) to obtain the inhibition constant Ki of anti-chymorypsin peptides (CHs).

[1] = read-out: Residual activity of chymotrypsin

| Compound | Ki | IC50 | remaining activity at 0.001 µM [1] | remaining activity at 0.01 µM [1] | remaining activity at 0.1 µM [1] | remaining activity at 1 µM [1] | remaining activity at 10 µM [1] | remaining activity at 100 µM [1] | other results |
| --- | --- | --- | --- | --- | --- | --- | --- | --- | --- |
| CC[C@H](C)[C@@H]1NC(=O)[C@H](CO)NC(=O)[C@H](Cc2ccc(O)cc2)NC(=O)[C@H]([C@@H](C)O)NC(=O)[C@@H](NC(=O)[C@@H]2CCCN2)CSSC[C@@H](C(=O)N[C@@H](Cc2ccc(O)cc2)C(=O)O)NC(=O)[C@H](CCC(N)=O)NC(=O)[C@@H]2CCCN2C(=O)[C@@H]2CCCN2C1=O [CH51] (H-PCTYSIPPQCY-OH; disulfide 2-10; C-terminus assumed) | 200 nM | 460 nM | 100 ± 1.2% | 100 ± 0.2% | 95.4 ± 2.2% | 24.3 ± 2.4% | 3 ± 0.2% | 0.3% | remaining activity at 0.2 µM [1]: 80.3 ± 3.9%; remaining activity at 0.4 µM [1]: 54.2 ± 1.8%; remaining activity at 0.8 µM [1]: 31.2 ± 1.6%; inhibitory activity reduced (fold): ~7 times |
| CC[C@H](C)[C@@H]1NC(=O)[C@@H]2CCCN2C(=O)[C@@H]2CCCN2C(=O)[C@H]([C@@H](C)CC)NC(=O)[C@H](CO)NC(=O)[C@H](Cc2ccc(O)cc2)NC(=O)[C@H]([C@@H](C)O)NC(=O)[C@@H](NC(=O)[C@H](CCCNC(=N)N)NC(=O)CN)CSSC[C@@H](C(=O)N[C@@H](Cc2ccccc2)C(=O)N2CCC[C@H]2C(=O)O)NC1=O [CH56] (H-GRCTYSIPPICFP-OH; disulfide 3-11; C-terminus assumed) | 270 nM | 620 nM |  |  |  |  |  |  | IC50 reduced (fold) (relative to CH55): 30 times |
| CC[C@H](C)[C@@H]1NC(=O)[C@@H]2CCCN2C(=O)[C@@H]2CCCN2C(=O)[C@H]([C@@H](C)CC)NC(=O)[C@H](CO)NC(=O)[C@H](Cc2ccc(O)cc2)NC(=O)[C@H]([C@@H](C)O)NC(=O)[C@H](C)NC(=O)[C@H](CCCNC(=N)N)NC(=O)CNC(=O)[C@@H](N)CSSC[C@@H](C(=O)N[C@@H](Cc2ccccc2)C(=O)O)NC1=O [CH67] (H-CGRATYSIPPICF-OH; disulfide 1-12; C-terminus assumed) | 860 nM | 2000 nM |  |  |  |  |  |  |  |
| CC[C@H](C)[C@@H]1NC(=O)[C@@H]2CCCN2C(=O)[C@@H]2CCCN2C(=O)[C@H]([C@@H](C)CC)NC(=O)[C@H](CO)NC(=O)[C@H](Cc2ccc(O)cc2)NC(=O)[C@H]([C@@H](C)O)NC(=O)[C@@H](NC(=O)[C@@H](N)[C@@H](C)O)CSSC[C@@H](C(=O)N[C@@H](CC(N)=O)C(=O)O)NC1=O [CH63] (H-TCTYSIPPICN-OH; disulfide 2-10; C-terminus assumed) | 1320 nM | 3050 nM |  |  |  |  |  |  |  |
| CC[C@H](C)[C@@H]1NC(=O)[C@@H]2CCCN2C(=O)[C@@H]2CCCN2C(=O)[C@H]([C@@H](C)CC)NC(=O)[C@H](CO)NC(=O)[C@H](Cc2ccc(O)cc2)NC(=O)[C@H]([C@@H](C)O)NC(=O)[C@H](C)NC(=O)[C@H](CCCNC(=N)N)NC(=O)CNC(=O)[C@@H](N)CSSC[C@@H](C(=O)N[C@@H](Cc2ccccc2)C(=O)N2CCC[C@H]2C(=O)O)NC1=O [CH66] (H-CGRATYSIPPICFP-OH; disulfide 1-12; C-terminus assumed) | 280 nM | 650 nM |  |  |  |  |  |  |  |

Compounds with a lower Ki, results first:

| Ki | IC50 | remaining activity at 0.001 µM [1] | remaining activity at 0.01 µM [1] | remaining activity at 0.1 µM [1] | remaining activity at 1 µM [1] | remaining activity at 10 µM [1] | remaining activity at 100 µM [1] | Compound | other results |
| --- | --- | --- | --- | --- | --- | --- | --- | --- | --- |
| 190 nM | 450 nM | 100.8 ± 0.9% | 101 ± 1.2% | 101 ± 2.6% | 16.6 ± 4.7% | 2.6 ± 0.2% | 0% | CC[C@H](C)[C@@H]1NC(=O)[C@H](CO)NC(=O)[C@H](Cc2ccc(O)cc2)NC(=O)[C@H]([C@@H](C)O)NC(=O)[C@@H](NC(=O)[C@@H](N)Cc2ccccc2)CSSC[C@@H](C(=O)N[C@@H](CCCNC(=N)N)C(=O)O)NC(=O)[C@H](CCC(N)=O)NC(=O)[C@@H]2CCCN2C(=O)[C@@H]2CCCN2C1=O [CH35] (H-FCTYSIPPQCR-OH; disulfide 2-10; C-terminus assumed) | remaining activity at 0.2 µM [1]: 78.9 ± 2.9%; remaining activity at 0.4 µM [1]: 58.8 ± 3.4%; remaining activity at 0.8 µM [1]: 27.3 ± 2.9%; inhibitory activity reduced (fold): ~7 times |
| 190 nM | 440 nM | 99.5 ± 1.4% | 92.1 ± 2.1% | 93.6 ± 1.6% | 19.8 ± 1% | 2 ± 0.2% | 0.1% | CC[C@H](C)[C@@H]1NC(=O)[C@H](CO)NC(=O)[C@H](Cc2ccc(O)cc2)NC(=O)[C@H]([C@@H](C)O)NC(=O)[C@@H](NC(=O)[C@@H](N)Cc2ccccc2)CSSC[C@@H](C(=O)N[C@@H](Cc2ccc(O)cc2)C(=O)O)NC(=O)[C@H](CCC(N)=O)NC(=O)[C@@H]2CCCN2C(=O)[C@@H]2CCCN2C1=O [CH33] (H-FCTYSIPPQCY-OH; disulfide 2-10; C-terminus assumed) | remaining activity at 0.5 µM [1]: 42.7 ± 3.1%; remaining activity at 0.75 µM (peptide 0.75 μM, read-out: Residual activity of chymotrypsin): 24.6 ± 2%; remaining activity at 1000 µM (peptide 1000 μM, read-out: Residual activity of chymotrypsin): 0.1% |
| 150 nM | 350 nM | 98.5 ± 3.1% | 104 ± 1.8% | 95.3 ± 3% | 17.6 ± 0.8% | 6.5 ± 0.3% | 1.1 ± 0.2% | CC[C@H](C)[C@@H]1NC(=O)[C@H](CO)NC(=O)[C@H](Cc2ccccc2)NC(=O)[C@H]([C@@H](C)O)NC(=O)[C@@H](NC(=O)[C@@H](N)CO)CSSC[C@@H](C(=O)N[C@@H](Cc2ccc(O)cc2)C(=O)NCC(=O)O)NC(=O)[C@H](CCC(N)=O)NC(=O)[C@@H]2CCCN2C(=O)[C@@H]2CCCN2C1=O [CH11] (H-SCTFSIPPQCYG-OH; disulfide 2-10; C-terminus assumed) | remaining activity at 0.15 µM [1]: 82.3 ± 3.3%; remaining activity at 5 µM (peptide 5 μM, read-out: Residual activity of chymotrypsin): 12.5 ± 0.7%; remaining activity at 300 µM (peptide 300 μM, read-out: Residual activity of chymotrypsin): 0.2 ± 0.6%; inhibitory activity reduced (fold): ~7 times |
| 110 nM | 250 nM | 100 ± 7.6% | 106 ± 1.8% | 105.8 ± 0.9% | 7.7 ± 0.2% | 0.7 ± 0.3% | -0.1 ± 0.1% | CC[C@H](C)[C@@H]1NC(=O)[C@@H]2CCCN2C(=O)[C@@H]2CCCN2C(=O)[C@H]([C@@H](C)CC)NC(=O)[C@H](CO)NC(=O)[C@H](Cc2ccc(O)cc2)NC(=O)[C@H]([C@@H](C)O)NC(=O)[C@H](C)NC(=O)[C@H](CCCNC(=N)N)NC(=O)[C@H](CCC(=O)O)NC(=O)[C@@H](N)CSSC[C@@H](C(=O)N[C@@H](Cc2ccccc2)C(=O)O)NC1=O [CH70] (H-CERATYSIPPICF-OH; disulfide 1-12; C-terminus assumed) | remaining activity at 0.15 µM [1]: 96.5 ± 8.5%; remaining activity at 0.2 µM [1]: 55 ± 7.2%; remaining activity at 0.5 µM [1]: 26 ± 2.5% |
| 80 nM | 190 nM | 113 ± 2.4% | 102 ± 3.7% |  | 11.3 ± 1.5% | 0.3% | 0.3 ± 0.2% | CC[C@H](C)[C@@H]1NC(=O)[C@H](CO)NC(=O)[C@H](Cc2ccccc2)NC(=O)[C@H]([C@@H](C)O)NC(=O)[C@@H](NC(=O)[C@@H](N)Cc2ccccc2)CSSC[C@@H](C(=O)N[C@@H](Cc2ccc(O)cc2)C(=O)NCC(=O)O)NC(=O)[C@H](CCC(N)=O)NC(=O)[C@@H]2CCCN2C(=O)[C@@H]2CCCN2C1=O [CH5] (H-FCTFSIPPQCYG-OH; disulfide 2-10; C-terminus assumed) | remaining activity at 0.0001 µM [1]: 96.7 ± 9.3%; remaining activity at 0.15 µM [1]: 58.3 ± 2.3%; remaining activity at 0.3 µM (peptide 0.3 μM, read-out: Residual activity of chymotrypsin): 41.9 ± 5.7%; remaining activity at 0.6 µM (peptide 0.6 μM, read-out: Residual activity of chymotrypsin): 19 ± 0.8% |
| 40 nM | 90 nM | 104.5 ± 0.9% | 102 ± 7.6% | 47.6 ± 7.6% | 3 ± 0.2% | 0.7 ± 0.1% | 0% | CC[C@H](C)[C@@H]1NC(=O)[C@@H]2CCCN2C(=O)[C@@H]2CCCN2C(=O)[C@H]([C@@H](C)CC)NC(=O)[C@H](CO)NC(=O)[C@H](Cc2ccc(O)cc2)NC(=O)[C@H]([C@@H](C)O)NC(=O)[C@@H](NC(=O)[C@@H](NC(=O)CN)[C@@H](C)O)CSSC[C@@H](C(=O)N[C@@H](CC(N)=O)C(=O)N2CCC[C@H]2C(=O)N[C@@H](CC(N)=O)C(=O)O)NC1=O [CH60] (H-GTCTYSIPPICNPN-OH; disulfide 3-11; C-terminus assumed) | remaining activity at 0.0001 µM [1]: 104.2 ± 0.8%; remaining activity at 0.25 µM (peptide 0.25 μM, read-out: Residual activity of chymotrypsin): 29.5 ± 4.6%; remaining activity at 0.5 µM [1]: 7.4 ± 1% |
